Test results as given in US20050227999A1, “Diarylamine derivatives as calcium channel blockers” (NeuroMed Technologies Inc., priority 2004, published 2005).
Read-outs that look alike come from different tables or passages of the source.

Legend:
[1] = molecular target: T1, human α1G T-type channels (Homo sapiens, UniProt O43497); assay: T-type calcium channel block, patch clamp in HEK cell lines; assay type: cell-based
T1 construct: expressed in transfected cells
Procedure: Standard patch-clamp techniques were employed to identify blockers of T-type currents. Briefly, previously described HEK cell lines stably expressing human α1G T-type channels were used for all the recordings (passage #: 4-20, 37° C., 5% CO2). To obtain T-type currents, plastic dishes containing semi-confluent cells were positioned on the stage of a ZEISS AXIOVERT S100 microscope after replacing the culture medium with external solution (see below). Whole-cell patches were obtained using pipettes (borosilicate glass with filament, O.D.: 1.5 mm, I.D.: 0.86 mm, 10 cm length), fabricated on a SUTTER P-97 puller with resistance values of ˜5 MΩ (see below for internal solution).
In the non-inactivating protocol, the holding potential is set at −110 mV and with a pre-pulse at −100 mV for 1 second prior to the test pulse at 40 mV for 50 ms. […]
Test compounds were dissolved in external solution, 0.1-0.01% DMSO. After ˜10 min rest, they were applied by gravity close to the cell using a WPI microfil tubing. The “non-inactivated” pre-pulse was used to examine the resting block of a compound. The “inactivated” protocol was employed to study voltage-dependent block. However, the initial data shown below were mainly obtained using the non-inactivated protocol only. IC50 values are shown for various compounds of the invention in Table 4.

[2] = molecular target: T2, rat brain N-type calcium channel subunits (α1B+α2δ+β1b cDNA subunits) (Rattus norvegicus, UniProt Q02294); assay: N-type calcium channel block, whole cell patch clamp in transfected HEK 293 cells; assay type: cell-based; settings: holding potential −80 mV to +10 mV
T2 construct: expressed in transfected cells; host or cells: HEK 293
Procedure: N-type calcium channel blocking activity was assayed in human embryonic kidney cells, HEK 293, stably transfected with the rat brain N-type calcium channel subunits (α1B+α2δ+β1b cDNA subunits). Alternatively, N-type calcium channels (α1B+α2δ+β1b cDNA subunits), L-type channels (α1C+δ+β1b cDNA subunits) and P/Q-type channels (α1A+α2δ+β1b cDNA subunits) were transiently expressed in HEK 293 cells. Briefly, cells were cultured in Dulbecco's modified eagle medium (DMEM) supplemented with 10% fetal bovine serum, 200 U/ml penicillin and 0.2 mg/ml streptomycin at 37° C. with 5% CO2. At 85% confluency cells were split with 0.25% trypsin/l mM EDTA and plated at 10% confluency on glass coverslips. At 12 hours the medium was replaced and the cells transiently transfected using a standard calcium phosphate protocol and the appropriate calcium channel cDNA's. Fresh DMEM was supplied and the cells transferred to 28° C./5% CO2. Cells were incubated for 1 to 2 days before cell recording.
Whole cell patch clamp experiments were performed using an Axopatch 200B amplifier (Axon Instruments, Burlingame, Calif.) linked to a personal computer equipped with PCLAMP software. The external and internal recording solutions contained, respectively, 5 mM BaCl2, 10 mM MgCl2, 10 mM HEPES, 40 mM TEACl, 10 mM glucose, 87.5 mM CsCl (pH 7.2) and 108 mM CsMS, 4 mM MgCl2, 9 mM EGTA, 9 mM HEPES (pH 7.2). Currents were typically elicited from a holding potential of −80 mV to +10 mV using Clampex software (Axon Instruments). Typically, currents were first elicited with low frequency stimulation (0.067 Hz) and allowed to stabilize prior to application of the compounds. The compounds were then applied during the low frequency pulse trains for two to three minutes to assess tonic block, and subsequently the pulse frequency was increased to 0.2 Hz to assess frequency dependent block. Data were analyzed using Clampfit (Axon Instruments) and SigmaPlot 4.0 (Jandel Scientific). […]

[3] = test system: spinal nerve ligation (SNL) injury; assay: Spinal nerve ligation (SNL) model of neuropathic pain, thermal hyperalgesia; assay type: in vivo; settings: rat SNL, 30 mg/kg orally in propylene glycol
From the text: Spinal nerve ligation (SNL) injury was induced using the procedure of Kim and Chung, (Kim and Chung 1992) in male Sprague-Dawley rats (Harlan; Indianapolis, Ind.) weighing 200 to 300 grams. Anesthesia was induced with 2% halothane in O2 at 2 L/min and maintained with 0.5% halothane in O2. After surgical preparation of the rats and exposure of the dorsal vertebral column from L4 to S2, the L5 and L6 spinal nerves were tightly ligated distal to the dorsal root ganglion using 4-0 silk suture. The incision was closed, and the animals were allowed to recover for 5 days. […] Sham control rats underwent the same operation and handling as the experimental animals, but without SNL.
The method of Hargreaves and colleagues (Hargreaves, et al., 1988) was employed to access paw-withdrawal latency to a thermal nociceptive stimulus. Rats were allowed to acclimate within a plexiglas enclosure on a clear glass plate maintained at 30° C. A radiant heat source (i.e., high intensity projector lamp) was activated with a timer and focused onto the plantar surface of the affected paw of nerve-injured or carrageenan-injected rats. Paw-withdrawal latency was determined by a photocell that halted both lamp and timer when the paw was withdrawn. The latency to withdrawal of the paw from the radiant heat source was determined prior to carrageenan or […], 3 hours after carrageenan or 7 days after L5/L6 SNL but before drug and after drug ministration. A maximal cut-off of 40 seconds was Employed to prevent tissue damage. Paw withdrawal latencies were thus determined to the Nearest 0.1 second. Reversal of thermal hyperalgesia was indicated by a return of the paw Withdrawal latencies to the pre-treatment baseline latencies (i.e., 21 seconds). Anti nociception Was indicated by a significant (p <0.05) increase in paw withdrawal latency above this baseline. Data were converted to % anti hyperalgesia by the formula: (100qx (test latency−baseline latency)/(cut-off−baseline latency) where cut-off was 21 seconds for determining anti hyperalgesia.
Compound 7 was administered orally in propylene glycol solution at a dose of 30 mg/kg. The percent activity was calculated for thermal hyperalgesia.

[4] = test system: rat formalin model; assay: Formalin-induced pain model; assay type: in vivo; settings: 30 mg/kg IP, 10 minutes prior to formalin, saline control=100%
Procedure: The effects of intrathecally delivered compounds of the invention on the rat formalin model were measured. The compounds were reconstituted to stock solutions of approximately 10 mg/ml in propylene glycol. Eight Holtzman male rats of 275-375 g size were randomly selected per test article.
The following study groups were used, with test article, vehicle control (propylene glycol) and saline delivered intraperitoneally (IP):
Prior to initiation of drug delivery baseline behavioral and testing data were taken.
On the morning of testing, a small metal band (0.5 g) was loosely placed around the right hind paw. The rat was placed in a cylindrical Plexiglas chamber for adaptation a minimum of 30 minutes. Test Article or Vehicle Control Article was administered 10 minutes prior to formalin injection (50 μl of 5% formalin) into the dorsal surface of the right hindpaw of the rat. The animal was then placed into the chamber of the automated formalin apparatus where movement of the formalin injected paw was monitored and the number of paw flinches tallied by minute over the next 60 minutes (Malmberg, A. B., et al., Anesthesiology (1993) 79:270-281).
Results are presented as Maximum Possible Effect±SEM, where saline control=100%.

[5] = test system: T-type over L-type channels; settings: cited from earlier work

T2 sequence (Q02294 whole entry): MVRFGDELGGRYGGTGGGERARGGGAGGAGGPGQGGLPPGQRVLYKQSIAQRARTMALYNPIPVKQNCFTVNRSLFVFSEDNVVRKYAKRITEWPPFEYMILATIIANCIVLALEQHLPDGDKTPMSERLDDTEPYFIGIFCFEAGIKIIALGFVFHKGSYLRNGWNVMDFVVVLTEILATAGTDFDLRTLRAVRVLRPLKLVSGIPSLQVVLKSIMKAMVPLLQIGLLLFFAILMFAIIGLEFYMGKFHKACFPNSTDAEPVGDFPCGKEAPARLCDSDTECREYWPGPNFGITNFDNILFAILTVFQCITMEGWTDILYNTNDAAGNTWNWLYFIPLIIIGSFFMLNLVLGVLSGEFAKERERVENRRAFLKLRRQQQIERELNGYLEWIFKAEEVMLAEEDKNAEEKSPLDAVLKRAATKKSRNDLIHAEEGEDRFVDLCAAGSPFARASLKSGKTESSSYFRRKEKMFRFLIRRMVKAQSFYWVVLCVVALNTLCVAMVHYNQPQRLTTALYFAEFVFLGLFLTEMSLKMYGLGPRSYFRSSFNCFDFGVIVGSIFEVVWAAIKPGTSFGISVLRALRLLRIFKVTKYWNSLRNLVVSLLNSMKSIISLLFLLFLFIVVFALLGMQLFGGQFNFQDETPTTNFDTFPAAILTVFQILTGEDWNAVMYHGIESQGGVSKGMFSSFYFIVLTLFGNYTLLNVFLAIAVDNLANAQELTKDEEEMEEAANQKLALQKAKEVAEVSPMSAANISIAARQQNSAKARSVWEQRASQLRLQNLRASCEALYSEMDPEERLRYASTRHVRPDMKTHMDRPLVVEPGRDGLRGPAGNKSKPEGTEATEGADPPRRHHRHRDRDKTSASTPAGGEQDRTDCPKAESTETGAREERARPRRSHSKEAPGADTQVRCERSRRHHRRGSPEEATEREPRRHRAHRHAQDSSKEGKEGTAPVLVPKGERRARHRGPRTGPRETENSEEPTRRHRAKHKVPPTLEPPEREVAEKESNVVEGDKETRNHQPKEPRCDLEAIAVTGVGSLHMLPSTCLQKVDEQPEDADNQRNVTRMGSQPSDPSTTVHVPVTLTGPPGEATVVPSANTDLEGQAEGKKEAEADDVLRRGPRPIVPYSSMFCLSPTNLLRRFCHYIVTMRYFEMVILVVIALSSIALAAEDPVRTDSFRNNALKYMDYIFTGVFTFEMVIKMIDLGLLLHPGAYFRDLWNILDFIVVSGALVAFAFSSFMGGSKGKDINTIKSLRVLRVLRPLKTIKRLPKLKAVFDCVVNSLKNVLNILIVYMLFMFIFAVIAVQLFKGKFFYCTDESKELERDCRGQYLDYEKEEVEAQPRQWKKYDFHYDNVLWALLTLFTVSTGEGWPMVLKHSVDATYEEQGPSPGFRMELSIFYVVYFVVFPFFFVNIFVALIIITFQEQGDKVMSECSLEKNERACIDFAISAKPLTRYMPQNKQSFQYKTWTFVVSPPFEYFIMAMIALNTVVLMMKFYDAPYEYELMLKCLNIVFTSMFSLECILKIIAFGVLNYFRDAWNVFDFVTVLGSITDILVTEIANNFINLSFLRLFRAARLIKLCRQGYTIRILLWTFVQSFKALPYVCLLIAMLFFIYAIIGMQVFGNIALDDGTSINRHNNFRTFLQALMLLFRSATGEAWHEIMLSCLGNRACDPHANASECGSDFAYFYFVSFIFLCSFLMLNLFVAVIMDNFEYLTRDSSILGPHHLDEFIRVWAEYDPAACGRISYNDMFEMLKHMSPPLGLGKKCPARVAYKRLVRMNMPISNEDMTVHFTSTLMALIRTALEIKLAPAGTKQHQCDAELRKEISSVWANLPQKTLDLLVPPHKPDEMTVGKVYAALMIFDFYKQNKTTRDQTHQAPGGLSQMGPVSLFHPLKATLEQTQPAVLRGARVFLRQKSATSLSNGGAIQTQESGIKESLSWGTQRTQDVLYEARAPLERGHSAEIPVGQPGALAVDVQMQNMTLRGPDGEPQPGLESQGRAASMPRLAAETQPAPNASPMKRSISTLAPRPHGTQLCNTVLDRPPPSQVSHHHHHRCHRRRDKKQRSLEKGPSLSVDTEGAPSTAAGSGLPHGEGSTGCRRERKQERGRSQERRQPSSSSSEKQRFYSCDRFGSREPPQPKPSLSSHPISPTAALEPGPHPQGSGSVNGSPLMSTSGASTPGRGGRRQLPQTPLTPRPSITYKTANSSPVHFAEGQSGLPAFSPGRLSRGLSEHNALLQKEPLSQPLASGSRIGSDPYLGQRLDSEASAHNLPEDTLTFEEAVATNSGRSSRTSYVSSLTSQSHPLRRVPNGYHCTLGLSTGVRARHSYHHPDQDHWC
T2 sequence (P54290 25-944 partner limits assumed): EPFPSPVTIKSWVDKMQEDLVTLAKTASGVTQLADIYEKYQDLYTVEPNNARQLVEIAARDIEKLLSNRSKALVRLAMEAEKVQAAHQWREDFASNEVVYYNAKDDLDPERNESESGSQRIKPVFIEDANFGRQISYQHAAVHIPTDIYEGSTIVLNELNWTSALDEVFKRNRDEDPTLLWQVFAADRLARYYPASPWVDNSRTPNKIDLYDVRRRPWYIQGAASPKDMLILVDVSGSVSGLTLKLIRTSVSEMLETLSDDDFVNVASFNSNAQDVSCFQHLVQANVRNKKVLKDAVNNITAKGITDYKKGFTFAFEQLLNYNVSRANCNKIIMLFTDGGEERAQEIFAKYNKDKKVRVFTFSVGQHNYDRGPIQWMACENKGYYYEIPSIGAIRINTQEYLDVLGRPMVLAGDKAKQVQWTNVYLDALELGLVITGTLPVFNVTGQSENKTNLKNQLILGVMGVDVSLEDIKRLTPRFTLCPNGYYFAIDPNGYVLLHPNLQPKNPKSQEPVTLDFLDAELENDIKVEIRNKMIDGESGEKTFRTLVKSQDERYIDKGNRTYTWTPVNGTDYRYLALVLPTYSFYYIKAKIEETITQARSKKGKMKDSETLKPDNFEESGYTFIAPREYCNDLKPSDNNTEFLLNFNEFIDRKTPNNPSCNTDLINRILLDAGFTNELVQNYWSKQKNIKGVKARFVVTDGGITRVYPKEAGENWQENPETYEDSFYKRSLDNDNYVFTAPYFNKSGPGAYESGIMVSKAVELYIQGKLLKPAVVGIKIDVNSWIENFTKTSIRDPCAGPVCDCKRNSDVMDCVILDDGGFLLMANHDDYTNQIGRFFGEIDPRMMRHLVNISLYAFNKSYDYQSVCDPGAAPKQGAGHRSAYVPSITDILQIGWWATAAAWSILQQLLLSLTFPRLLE
T2 sequence (P54290 945-1091 partner limits assumed): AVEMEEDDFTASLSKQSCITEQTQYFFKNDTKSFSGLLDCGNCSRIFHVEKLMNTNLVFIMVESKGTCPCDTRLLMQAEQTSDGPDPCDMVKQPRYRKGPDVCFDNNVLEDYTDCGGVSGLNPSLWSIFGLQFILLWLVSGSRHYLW
T2 sequence (P54283 whole entry partner): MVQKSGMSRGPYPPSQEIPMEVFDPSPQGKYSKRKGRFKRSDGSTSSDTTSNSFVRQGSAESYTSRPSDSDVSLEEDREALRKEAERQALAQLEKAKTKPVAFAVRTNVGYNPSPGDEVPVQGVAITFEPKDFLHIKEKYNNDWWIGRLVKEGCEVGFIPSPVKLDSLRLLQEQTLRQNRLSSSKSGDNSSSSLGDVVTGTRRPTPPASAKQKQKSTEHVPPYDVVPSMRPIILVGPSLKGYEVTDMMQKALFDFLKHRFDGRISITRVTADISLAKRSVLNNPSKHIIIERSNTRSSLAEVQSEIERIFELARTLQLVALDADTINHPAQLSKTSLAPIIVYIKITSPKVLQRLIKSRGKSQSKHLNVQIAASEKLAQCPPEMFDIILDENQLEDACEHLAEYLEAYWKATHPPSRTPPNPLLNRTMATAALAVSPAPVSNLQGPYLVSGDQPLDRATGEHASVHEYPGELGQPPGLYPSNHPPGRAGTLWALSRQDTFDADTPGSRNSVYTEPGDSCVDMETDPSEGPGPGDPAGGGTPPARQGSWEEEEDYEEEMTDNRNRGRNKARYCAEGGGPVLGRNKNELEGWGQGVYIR

Row | IC50 ([1]; −80 mV (inactivation protocol, voltage-dependent block), read-out: IC50 - 80 mV) | IC50 ([1]; −100 mV pre-pulse (non-inactivating protocol, resting block), read-out: IC50 - 100 mV) | IC50 ([2]; low frequency stimulation 0.067 Hz (tonic block), read-out: IC50 @ 0.067 Hz) | IC50 ([2]; pulse frequency 0.2 Hz (frequency dependent block), read-out: IC50 @ 0.2 Hz) | Compound | Thermal Hyperalgesia (% Activity) ([3]; 30 min) | Thermal Hyperalgesia (% Activity) ([3]; 60 min) | Thermal Hyperalgesia (% Activity) ([3]; 90 min) | Thermal Hyperalgesia (% Activity) ([3]; 120 min) | Maximum Possible Effect±SEM, Phase II Total [4] | Maximum Possible Effect±SEM, Phase IIB [4] | selective for T-type over L-type channels [5]
1 | 1000 nM | 1000 nM | 180 nM | 140 nM | O=C(CN(c1ccccc1)c1ccccc1)N1CCN(C(c2ccccc2)c2cccc(Cl)c2Cl)CC1 (centres unmarked) [Compound 7, 1-{4-[(2,3-Dichloro-phenyl)-phenyl-methyl]-piperazin-1-yl}-2-diphenylamino-ethanone] | 38.45 ± 18.52% | 78.54 ± 10.74% | 40.21 ± 17.08% | 20.98 ± 10.36% | 63 ± 10% | 64 ± 11% | 
2 |  |  |  |  | COCC(=O)O[C@]1(CCN(C)CCCc2nc3ccccc3[nH]2)CCc2cc(F)ccc2[C@@H]1C(C)C [Mibefradil] |  |  |  |  |  |  | 10-30 fold
